Target: T1, EnoCa (enolase-1 from Chloroflexus aurantiacus) (Chloroflexus aurantiacus, UniProt A9WCM4)
T1 construct: gene eno; native protein purified from C. aurantiacus cells, untagged; homodimer, subunit ~46 kDa, total ~92-96 kDa
Assay: X-ray crystal structure of the complex
Type: binding
Conditions: active site, closed conformation, second Mg2+ modelled; crystals at pH 9.0

T1 sequence (A9WCM4 whole entry): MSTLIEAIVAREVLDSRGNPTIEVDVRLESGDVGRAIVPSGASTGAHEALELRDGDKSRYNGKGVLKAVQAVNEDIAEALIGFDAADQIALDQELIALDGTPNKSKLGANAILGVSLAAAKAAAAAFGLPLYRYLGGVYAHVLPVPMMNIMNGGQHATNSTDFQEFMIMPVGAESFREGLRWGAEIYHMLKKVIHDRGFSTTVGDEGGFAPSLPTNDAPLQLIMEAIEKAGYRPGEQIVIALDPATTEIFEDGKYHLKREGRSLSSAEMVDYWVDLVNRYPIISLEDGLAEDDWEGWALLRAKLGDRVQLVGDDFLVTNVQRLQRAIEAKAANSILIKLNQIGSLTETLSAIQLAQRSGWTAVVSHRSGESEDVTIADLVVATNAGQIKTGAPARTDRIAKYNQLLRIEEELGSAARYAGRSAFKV

## C=C(OP(=O)(O)O)C(=O)O [phosphoenolpyruvate]
  X-ray crystal structure of the complex: PEP itself is bound by Glu165, Glu206, Lys338, Arg367, and Ser368

— article PMC4450660, “Biochemical and Structural Characterization of Enolase from Chloroflexus aurantiacus: Evidence for a Thermophilic Origin” (Frontiers in Bioengineering and Biotechnology, 2015)
